Results from article PMC7875539 (Science Advances, 2021).

Columns and labels:
Conditions in all cases: 100 mM KCl, 5 mM MgCl2, 20 mM Hepes pH 7.5, 25 °C; CBS domain nucleotide site
[1] = target: TpCorC CBS domain (Thermus parvatiensis, UniProt A0A109QFA5)
[2] = target: TpCorC CBS domain (Thermus parvatiensis, UniProt A0A109QFA5, T336I)
[3] = target: TpCorC CBS domain (Thermus parvatiensis, UniProt A0A109QFA5, Y255A)
TpCorC CBS domain (Thermus parvatiensis, UniProt A0A109QFA5, Y255A), sequence (A0A109QFA5 202-361 Y255A limits assumed): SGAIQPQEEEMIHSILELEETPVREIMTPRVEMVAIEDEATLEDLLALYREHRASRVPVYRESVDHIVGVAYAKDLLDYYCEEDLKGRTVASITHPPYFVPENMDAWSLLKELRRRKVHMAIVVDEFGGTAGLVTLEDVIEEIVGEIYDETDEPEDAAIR

TpCorC CBS domain (Thermus parvatiensis, UniProt A0A109QFA5, T336I), sequence (A0A109QFA5 202-361 T336I limits assumed): as the sequence (A0A109QFA5 202-361 Y255A limits assumed) above, with A54Y, T135I counted along it
TpCorC CBS domain (Thermus parvatiensis, UniProt A0A109QFA5), sequence (A0A109QFA5 202-361 limits assumed): as the sequence (A0A109QFA5 202-361 Y255A limits assumed) above, with A54Y counted along it

Kd [1]: 460 nM
Kd [2]: 9.4 µM
Kd [3]: 2800 nM
Structure (SMILES): Nc1ncnc2c1ncn2[C@@H]1O[C@H](COP(=O)(O)OP(=O)(O)OP(=O)(O)O)[C@@H](O)[C@H]1O [ATP]
